The values below come from article PMC8636943.

By Kd is commonly meant the concentration at which binding is half-saturated. A lower Kd goes with a tighter complex.

Data set [1] concerns G4-Apt (DNA, G4) AGGGACGGGACCGTCTTCCAGACAAGAGTGCAGGGAGGGACGGGA
The experiment in a line: biolayer interferometry (Octet RED96). Conditions: binding buffer (composition not given), 25 °C. In general terms: BLI is a label-free optical method that tracks binding on a fibre tip over time.

The test system of data set [2] is anti-VEGF165 aptamer (DNA, aptamer) CCGTCTTCCAGACAAGAGTGCAGGG
Put plainly: biolayer interferometry (Octet RED96). Conditions: binding buffer (composition not given), 25 °C.

A further data set has as its target VEGF165 (human, UniProt P15692-4 27-191). The experiment in a line: BLI; BLI (Octet RED96), 25 C, 1000 rpm, 200 uL binding buffer (composition not given), VEGF165 6.25-100 nM, BSA blank as reference. Conditions: protein: commercial, chain copies: 2.

VEGF165, sequence (P15692 other isoform, or with tags, fused parts or gaps): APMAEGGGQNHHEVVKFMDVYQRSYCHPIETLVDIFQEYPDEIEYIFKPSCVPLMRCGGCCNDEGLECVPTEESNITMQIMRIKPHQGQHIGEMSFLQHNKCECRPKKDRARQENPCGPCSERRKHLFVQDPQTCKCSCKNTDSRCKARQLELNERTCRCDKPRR

With `Cc1ccc2c(c1)sc(-c1ccc(N(C)C)cc1)[n+]2C`, in data set [1], the “K D” value turned out to be 52900 nM. Besides, the binding result in data set [2] is given as “no”. Consider AGGGACGGGACCGTCTTCCAGACAAGAGTGCAGGGAGGGACGGGA (structured_DNA) [G4-Apt], for which binding in the data set with VEGF165 (largely parallel G-quadruplex by CD) was put at a Kd of 0.538 nM. Regarding CCGTCTTCCAGACAAGAGTGCAGGG (ssDNA) [anti-VEGF165 aptamer], binding with VEGF165 (B-DNA form by CD) was characterised by a dissociation constant (Kd) of 0.287 nM.
